PubChem BioAssay AID248 (DTP/NCI, 2004)
Values joined by “and” are separate entries in the source; they are usually repeats but may differ in a detail not shown here. Identical values can stand only once. Inconclusive results and toxic doses are left out. Rule as the data show it: active = T/C of 150% or more; inactive = T/C below 125%.

Tested on: L1210 leukemia ip in BDF1 mice, survival T/C
Assay: NCI In Vivo Anticancer Drug Screen. Data for tumor model L1210 Leukemia (intraperitoneal) in B6D2F1 (BDF1) mice
Details: endpoint: mean survival time, higher = longer survival
In short: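 Read-out is survival time, reported as the treated-group measurement over the vehicle-control measurement.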

[1] = dose: 100.0 mg/kg/injection, schedule: Q04DX003 (ip), vehicle: Klucel (hydroxypropylcellulose) (HPC)
[2] = dose: 200.0 mg/kg/injection, schedule: Q04DX003 (ip), vehicle: Klucel (hydroxypropylcellulose) (HPC)
[3] = dose: 400.0 mg/kg/injection, schedule: Q04DX003 (ip), vehicle: Klucel (hydroxypropylcellulose) (HPC)
[4] = dose: 100.0 mg/kg/injection, schedule: Q01DX001 (ip), vehicle: carboxymethylcellulose (CMC)
[5] = dose: 200.0 mg/kg/injection, schedule: Q01DX001 (ip), vehicle: carboxymethylcellulose (CMC)
[6] = dose: 400.0 mg/kg/injection, schedule: Q01DX001 (ip), vehicle: carboxymethylcellulose (CMC)
[7] = dose: 100.0 mg/kg/injection, schedule: Q04DX002 (ip), vehicle: Klucel (hydroxypropylcellulose) (HPC)
[8] = dose: 200.0 mg/kg/injection, schedule: Q04DX002 (ip), vehicle: Klucel (hydroxypropylcellulose) (HPC)
[9] = dose: 400.0 mg/kg/injection, schedule: Q04DX002 (ip), vehicle: Klucel (hydroxypropylcellulose) (HPC)
[10] = dose: 75.0 mg/kg/injection, schedule: Q04DX003 (ip), vehicle: saline
[11] = dose: 150.0 mg/kg/injection, schedule: Q04DX003 (ip), vehicle: saline
[12] = dose: 100.0 mg/kg/injection, schedule: Q01DX001 (ip), vehicle: Klucel (hydroxypropylcellulose) (HPC)
[13] = dose: 200.0 mg/kg/injection, schedule: Q01DX001 (ip), vehicle: Klucel (hydroxypropylcellulose) (HPC)
[14] = dose: 400.0 mg/kg/injection, schedule: Q01DX001 (ip), vehicle: Klucel (hydroxypropylcellulose) (HPC)
[15] = dose: 100.0 mg/kg/injection, schedule: Q01DX001 (ip), vehicle: saline
[16] = dose: 200.0 mg/kg/injection, schedule: Q01DX001 (ip), vehicle: saline
[17] = dose: 400.0 mg/kg/injection, schedule: Q01DX001 (ip), vehicle: saline

Measured: T/C

O=C1OC(=O)c2ccc(Sc3ccccn3)c3cccc1c23
inactive: dose: 100.0 mg/kg/injection, schedule: Q04DX003 (ip), vehicle: carboxymethylcellulose (CMC) 93 % of control | dose: 200.0 mg/kg/injection, schedule: Q04DX003 (ip), vehicle: carboxymethylcellulose (CMC) 88 % of control | dose: 400.0 mg/kg/injection, schedule: Q04DX003 (ip), vehicle: carboxymethylcellulose (CMC) 93 % of control

CCOc1ncc([N+](=O)[O-])cn1
inactive: [1] 101 % of control | [2] 114 % of control | [3] 103 % of control

CN(C)CCOC(=O)c1ccc(CCl)cc1
inactive: dose: 87.5 mg/kg/injection, schedule: Q01DX009 (ip), vehicle: saline 87 % of control | dose: 175.0 mg/kg/injection, schedule: Q01DX009 (ip), vehicle: saline 101 % of control

CCOC(=O)CCCN(c1ccccc1)S(=O)(=O)c1ccc(C)cc1
inactive: [4] 93 % of control | [5] 96 % of control | [6] 107 % of control

CCCCCCCCCCCNC(=O)CCl
inactive: dose: 75.0 mg/kg/injection, schedule: Q04DX003 (ip), vehicle: Klucel (hydroxypropylcellulose) (HPC) 91 % of control | dose: 150.0 mg/kg/injection, schedule: Q04DX003 (ip), vehicle: Klucel (hydroxypropylcellulose) (HPC) 92 % of control | dose: 300.0 mg/kg/injection, schedule: Q04DX003 (ip), vehicle: Klucel (hydroxypropylcellulose) (HPC) 89 % of control

Nc1ccccc1-n1cccc1
inactive: dose: 100.0 mg/kg/injection, schedule: Q04DX003 (ip), vehicle: other 100 % of control | dose: 200.0 mg/kg/injection, schedule: Q04DX003 (ip), vehicle: other 113 % of control | dose: 400.0 mg/kg/injection, schedule: Q04DX003 (ip), vehicle: other 100 % of control

Cc1ccc(NC(=O)COc2ccc(Cl)cc2Cl)cc1NC(=O)COc1ccc(Cl)cc1Cl
inactive: [7] 89 % of control | [8] 92 % of control | [9] 100 % of control

CCCSCCSCCC
inactive: dose: 25.0 mg/kg/injection, schedule: Q04DX003 (ip), vehicle: saline with Tween-80 104 % of control | dose: 50.0 mg/kg/injection, schedule: Q04DX003 (ip), vehicle: saline with Tween-80 102 % of control | dose: 100.0 mg/kg/injection, schedule: Q04DX003 (ip), vehicle: saline with Tween-80 104 % of control and 90 % of control

COc1ccc(-c2c(-c3ccccc3)oc3cc(O)ccc23)cc1
inactive: dose: 100.0 mg/kg/injection, schedule: Q04DX003 (ip), vehicle: gum acacia 90 % of control | dose: 200.0 mg/kg/injection, schedule: Q04DX003 (ip), vehicle: gum acacia 90 % of control | dose: 400.0 mg/kg/injection, schedule: Q04DX003 (ip), vehicle: gum acacia 93 % of control

Fc1ccc(NC(=S)Nc2cc(Cl)cc(Cl)c2)cc1
inactive: dose: 7.5 mg/kg/injection, schedule: Q01DX Z (ip), vehicle: carboxymethylcellulose (CMC) 96 % of control | dose: 15.0 mg/kg/injection, schedule: Q01DX Z (ip), vehicle: carboxymethylcellulose (CMC) 93 % of control | dose: 30.0 mg/kg/injection, schedule: Q01DX Z (ip), vehicle: carboxymethylcellulose (CMC) 100 % of control | dose: 50.0 mg/kg/injection, schedule: Q01DX001 (ip), vehicle: carboxymethylcellulose (CMC) 98 % of control | dose: 60.0 mg/kg/injection, schedule: Q01DX Z (ip), vehicle: carboxymethylcellulose (CMC) 87 % of control | dose: 75.0 mg/kg/injection, schedule: Q01DX Z (ip), vehicle: carboxymethylcellulose (CMC) 87 % of control | [4] 93 % of control | [5] 95 % of control

NCCS(=O)CCN
inactive: dose: 100.0 mg/kg/injection, schedule: Q01DX009 (ip), vehicle: saline 100 % of control | dose: 200.0 mg/kg/injection, schedule: Q01DX009 (ip), vehicle: saline 107 % of control | dose: 400.0 mg/kg/injection, schedule: Q01DX009 (ip), vehicle: saline 94 % of control

Cc1cccc(NC(=O)NCCCl)c1C
inactive: [4] 91 % of control | [5] 91 % of control | [6] 93 % of control

Cc1ccccc1N=NN(C)C
inactive: [4] 106 % of control | [5] 106 % of control

CN(Cc1ccccc1)/C(N)=N/N
inactive: dose: 37.5 mg/kg/injection, schedule: Q04DX003 (ip), vehicle: saline 94 % of control | [10] 111 % of control | [11] 97 % of control

NCC(=O)N/C(=C/c1ccccc1)C(=O)NCC(=O)O
inactive: dose: 100.0 mg/kg/injection, schedule: Q04DX002 (ip), vehicle: saline with Tween-80 97 % of control | dose: 200.0 mg/kg/injection, schedule: Q04DX002 (ip), vehicle: saline with Tween-80 97 % of control | dose: 400.0 mg/kg/injection, schedule: Q04DX002 (ip), vehicle: saline with Tween-80 97 % of control

O=C(O)C1CCCCC1C(=O)O (stereo not drawn)
inactive: [12] 103 % of control | [1] 101 % of control | dose: 100.0 mg/kg/injection, schedule: Q04DX003 (ip), vehicle: saline 95 % of control | [13] 91 % of control | [2] 97 % of control | dose: 200.0 mg/kg/injection, schedule: Q04DX003 (ip), vehicle: saline 98 % of control | [14] 93 % of control | [3] 97 % of control | dose: 400.0 mg/kg/injection, schedule: Q04DX003 (ip), vehicle: saline 98 % of control

Nc1ccc(S(=O)(=O)O)c2ccccc12
inactive: dose: 50.0 mg/kg/injection, schedule: Q01DX001 (ip), vehicle: saline 94 % of control | [15] 94 % of control | [16] 103 % of control | [17] 94 % of control

c1cc2nnc3cccc4nnc(c1)c2c34
inactive: [15] 102 % of control | [16] 107 % of control | [17] 103 % of control

CCCCCCc1c(N)nc(N)[nH]c1=O
inactive: dose: 100.0 mg/kg/injection, schedule: Q01DX001 (ip), vehicle: saline with Tween-80 98 % of control | dose: 200.0 mg/kg/injection, schedule: Q01DX001 (ip), vehicle: saline with Tween-80 89 % of control | dose: 400.0 mg/kg/injection, schedule: Q01DX001 (ip), vehicle: saline with Tween-80 98 % of control

CCOC(=O)C(CCSC)(CCN(C)Cc1ccccc1)C(=O)OCC
inactive: dose: 5.0 mg/kg/injection, schedule: Q01DX001 (ip), vehicle: saline 102 % of control | dose: 10.0 mg/kg/injection, schedule: Q01DX001 (ip), vehicle: saline 96 % of control | dose: 20.0 mg/kg/injection, schedule: Q01DX001 (ip), vehicle: saline 96 % of control | dose: 40.0 mg/kg/injection, schedule: Q01DX001 (ip), vehicle: saline 94 % of control | dose: 80.0 mg/kg/injection, schedule: Q01DX001 (ip), vehicle: saline 94 % of control | [15] 100 % of control

O=c1[nH]c(=O)c2nc[nH]c(=O)c2[nH]1
inactive: dose: 75.0 mg/kg/injection, schedule: Q01DX009 (ip), vehicle: Klucel (hydroxypropylcellulose) (HPC) 98 % of control | [1] 118 % of control | dose: 150.0 mg/kg/injection, schedule: Q01DX009 (ip), vehicle: Klucel (hydroxypropylcellulose) (HPC) 97 % of control | [2] 94 % of control | [3] 100 % of control

CCCCCCCCCCCCCCCCOc1ccc(S(=O)(=O)N2CCOCC2)cc1[N+](=O)[O-]
inactive: [10] 103 % of control | [12] 97 % of control | [11] 93 % of control | [13] 104 % of control | dose: 300.0 mg/kg/injection, schedule: Q04DX003 (ip), vehicle: saline 95 % of control | [14] 104 % of control

C=CCNC(=S)N(Cc1ccccc1)Cc1ccccc1
inactive: [7] 105 % of control | [8] 101 % of control | [9] 94 % of control

O=[N+]([O-])c1ccc(C(Br)C(Br)c2ccccc2Cl)cc1 (stereo not drawn)
inactive: dose: 100.0 mg/kg/injection, schedule: Q01DX009 (ip), vehicle: Klucel (hydroxypropylcellulose) (HPC) 96 % of control | [1] 110 % of control | dose: 200.0 mg/kg/injection, schedule: Q01DX009 (ip), vehicle: Klucel (hydroxypropylcellulose) (HPC) 98 % of control | [2] 100 % of control | dose: 400.0 mg/kg/injection, schedule: Q01DX009 (ip), vehicle: Klucel (hydroxypropylcellulose) (HPC) 93 % of control | [3] 94 % of control
